# In PMC7866262, “Laccase-Catalyzed 1,4-Dioxane-Mediated Synthesis of Belladine N-Oxides with Anti-Influenza A Virus Activity” (International Journal of Molecular Sciences, 2021):
# Where two headings read alike, the source gives them in different places.
# Experiments:
# in vitro [1] = details: human
# in vitro [2] = details: dog
# [3] = test system: influenza A/Puerto Rico/8/34 H1N1 (PR8) virus; experiment: microbe, parasite or virus in culture; format: cell-based; details: for IC50: Influenza A virus, 24 h, read-out: IC50 (concentration of compound causing 50% reduction of viral infection)
# [4] = test system: influenza A/Puerto Rico/8/34 H1N1 (PR8) virus; experiment: microbe, parasite or virus in culture; format: cell-based; details: for IC50: Influenza A virus
# [5] = test system: influenza A/Puerto Rico/8/34 H1N1 (PR8) virus; format: cell-based
# [6] = A549, 24 h, read-out: IC50 (concentration of compound causing 50% reduction of viral infection)
Compound,CC50 at 24 h (in vitro [1]),CC50 (in vitro [2]),IC50 [3],"IC50 [4, 6]",CC50 (in vitro [1]),antiviral activity against influenza A virus (in words) [4],"SI (Selectivity Index, CC50/IC50) [3]",foci of infection in cell monolayers [5],"IC50 ([4]; A549, read-out: IC50 range against viral replication)"
"COc1cc(Br)c(C[N+](C)([O-])CCc2ccc(O)cc2)cc1O (stereo not drawn) [Compound 9, N-(2-Bromo-5-Hydroxy-4-Methoxybenzyl)-2-(4-Hydroxyphenyl)-N-Methylethan-1-Amine Oxide]",211 ± 8.1 µM,206 ± 7.9 µM,86.8 ± 5.1 µM,377 ± 11.4 µM,–,–,–,–,–
"COc1ccc(C[N+](C)([O-])CCc2ccc(O)cc2)cc1O (stereo not drawn) [Compound 12a, N-(3-Hydroxy-4-Methoxybenzyl)-2-(4-Hydroxyphenyl)-N-Methylethan-1-Amine Oxide]",200 ± 7.1 µM,137 ± 5.8 µM,137 ± 5.9 µM,78.8 ± 4.3 µM,–,–,–,–,–
"C[N+]([O-])(CCc1ccc(O)cc1)Cc1cccc(O)c1 (stereo not drawn) [Compound 12b, N-(3-hydroxybenzyl)-2-(4-hydroxyphenyl)-N-methylethan-1-amine oxide]",149 ± 6.2 µM,129 ± 6 µM,138 ± 6.1 µM,83.2 ± 5.1 µM,–,–,–,–,–
"C[N+]([O-])(CCc1ccc(O)cc1)Cc1ccc(O)cc1 (stereo not drawn) [Compound 12c, N-(4-Hydroxybenzyl)-2-(4-Hydroxyphenyl)-N-Methylethan-1-Amine Oxide]",83.8 ± 5 µM,114 ± 5.2 µM,84.7 ± 4.8 µM,80.2 ± 4.9 µM,–,–,–,–,–
"C[N+]([O-])(CCc1ccc(O)cc1)Cc1ccc([N+](=O)[O-])c(O)c1 (stereo not drawn) [Compound 12d, N-(3-Hydroxy-4-Nitrobenzyl)-2-(4-Hydroxyphenyl)-N-Methylethan-1-Amine Oxide]",–,101 ± 4.9 µM,70.2 ± 4 µM,1240 ± 30.2 µM,113 ± 6.1 µM,deprived the molecule of antiviral activity,–,–,–
"C[N+]([O-])(CCc1ccc(O)cc1)Cc1ccccc1 (stereo not drawn) [Compound 12e, N-Benzyl-2-(4-Hydroxyphenyl)-N-Methylethan-1-Amine Oxide]",–,109 ± 5.1 µM,133 ± 5.8 µM,–,–,–,0.81,–,–
"C[N+]([O-])(CCCc1ccccc1)Cc1cccc(O)c1 (stereo not drawn) [Compound 12h, N-(3-Hydroxybenzyl)-N-Methyl-3-Phenylpropan-1-Amine Oxide]",–,221 ± 8.9 µM,73.2 ± 3.3 µM,70.4 ± 3.1 µM,287 ± 8.3 µM,–,–,reduction of foci of infection,70 to 73 µg/mL
